Here are results for 2 compounds from PubChem BioAssay (NCI).

The structures appear in SMILES notation.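 All cell lines were grown in 96-well plates and treated with compound for 48 hours. The concentration for full growth arrest is given as TGI.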 A value given as a limit tells only on which side of the number the result lay.

Test systems include HOP-62 NSCLC; UACC-257 melanoma; SK-OV-3 ovarian; HCC-2998 colon; OVCAR-8 ovarian; T-47D breast; SNB-19 CNS; CCRF-CEM leukemia; UACC-62 melanoma; EKVX NSCLC; SK-MEL-28 melanoma.
Common to all, as to experiment: inhibition of tumour cell growth, NCI panel, 48 h

In the case of `Cc1ccc(/C=N/Nc2ncccn2)s1`, the TGI with HOP-62 NSCLC, in the assay on UACC-257 melanoma, in the assay on SK-OV-3 ovarian, with HCC-2998 colon, in the assay on OVCAR-8 ovarian and with T-47D breast was greater than 100 µM throughout. Moreover, the TGI in the assay with SNB-19 CNS, with CCRF-CEM leukemia, in the assay on UACC-62 melanoma, in the assay on EKVX NSCLC and in the assay on SK-MEL-28 melanoma was greater than 100 µM throughout.

As to `COC(=O)C1=C(C)NC(C)=C([N+](=O)[O-])C1c1cccc(NO)c1` (configuration not stated), the TGI is greater than 100 µM in the assay on HOP-62 NSCLC; 28.1 µM with UACC-257 melanoma; greater than 85.6 µM in the assay on SK-OV-3 ovarian; 16.8 µM with HCC-2998 colon; 37.5 µM in the assay with OVCAR-8 ovarian; greater than 52.4 µM in the assay on T-47D breast. Also, the TGI in the assay on SNB-19 CNS is greater than 100 µM; with CCRF-CEM leukemia, greater than 22.9 µM; in the assay with UACC-62 melanoma, greater than 31.6 µM; with EKVX NSCLC, greater than 61.5 µM; with SK-MEL-28 melanoma it was greater than 69.4 µM.
